According to patent US9072729B2, “Method for treating fibrosis and cancer with imidazolium and imidazolinium compounds” (Agency for Science, Technology and Research, priority 2008, dated 2015):
Read-outs that look alike come from different tables or passages of the source.

Legend:
Format in all cases: cell-based, rat
col1a1 = test: Real-time RT-PCR of col1a1 mRNA in HSC T6 cells; details: 48 h; DBIM 1 mM, DPIM 2 mM, TMPHIM 50 μM, DPPHIM 10 μM
Protocol: (§1) FIG. 6. (a) DBZIM and (b) TDBZIM suppressed the mRNA expression of HSC activation markers (GFAP and SMAA) and fibrotic endpoints (col1a1 and fibronectin) in a dosage-dependent manner. […] The ΔΔCt method was used for relative quantification with vehicle control sample being the calibrator. The data were presented as mean and SEM, N=6, *^aP<0.05, *^bP<0.01, *^cP<0.005, and *^dP<0.0005, when compared to the vehicle control. FIG. 7. DBZIM (100 μM) and TDBZIM (100 μM) suppressed (a) GFAP, (b) SMAA, (c) col1a1 and (d) fibronectin mRNA expression in a time-dependent manner. HSC T6 cells were treated with DBZIM and TDBZIM, and assayed after 8, 24 and 48 h. […] FIG. 14. […] (50 μM), […] (50 μM), […] (10 μM) and DBZBIM (100 μM) were dissolved in DMSO with a final DMSO concentration of 0.2% (v/v). DPIM (2 mM), EGCG (25 μM) and DBZIM (100 μM) were dissolved in H2O. β-actin was used as the normalization gene; its expression was constant under the experimental conditions. Relative quantification was normalized against the respective vehicle control. The data were presented as mean and SEM, N=6, *^aP<0.05, *^cP<0.005, and *^dP<0.0005, when compared to the vehicle control. Total RNA was isolated using NucleoSpin RNAII isolation kit ([…], Germany), and quantified by ND-100 spectrophotometer (Nanodrop Technologies, DE, USA). The details of real-time RT-PCR were reported elsewhere (Zhang et al. 2006). Briefly, it was a two-step real-time RT-PCR using Taqman chemistry. Total RNA was first reverse transcribed to cDNA, and real-time PCR was run and detected in ABI 7500 Fast Real-Time PCR System (Applied Biosystems, CA, USA). Primers and probes for rat GFAP, SMAA, collagen Ia1, fibronectin, TGF-β1, TGF-β receptor I (TGFβ RI) and IL-6 were ordered from Taqman's assay-on-demand database. Rat β-actin was used as normalization gene, and its expression level was constant (CT difference was <±0.5) throughout the experimental settings in this study. Relative quantification of target mRNA was calculated using comparative threshold cycle method (ΔΔCT) as described in User Bulletin #2 (ABI Prism 7700 Sequence Detection System). Relative quantification was given by 2^-ΔΔCT to express the up-regulation or down regulation of the target gene under the treatments compared to the control.

HSC T6 cells = test: MTS based proliferation assay (cytotoxicity) on cultured HSC-T6 cells; details: read-out: IC50 (toxicity on T6 cells)
Protocol: FIG. 1. Cytotoxicity of (a) DBZIM and (b) TDBZIM. […] The signal was normalized against a vehicle control treatment (0 μM of compound). The data were obtained from four independent experiments, and presented as mean and standard error or mean (SEM), *^aP<0.05, *^bP<0.01 and *^cP<0.005.
Firstly we assessed the cytotoxicity of DBZIM and TDBZIM on cultured HSC-T6 cells using a 3-(4,5-dimethylthiazol-2-yl)-5-(3-carboxymethoxyphenyl)-2-(4-sulfophenyl)-2H-tetrazolium (MTS) based proliferation assay kit (Promega, Wis., USA). […]

GFAP = test: Real-time RT-PCR of GFAP mRNA in HSC T6 cells; details: 48 h; DPIM 2 mM, AMIM 50 μM, TMPHIM 50 μM, DBZBIM 100 μM
Protocol: as §1

fibronectin = test: Real-time RT-PCR of fibronectin mRNA in HSC T6 cells; details: 48 h; DPIM 2 mM, TMPHIM 50 μM, DBZIM 100 μM
Protocol: as §1

SMAA = test: Real-time RT-PCR of SMAA mRNA in HSC T6 cells; details: 48 h; DBIM 1 mM, DPIM 2 mM, AMIM 50 μM, TMPHIM 50 μM
Protocol: as §1

GPx = test: Glutathione peroxidase (GPx) activity assay in treated cells; details: 0.2% (v/v) DMSO vs untreated
Protocol: (§2) FIG. 4. Effect of DBZIM and TDBZIM on GPx, CAT, SOD and GST. DBZIM affected (a) GPx activity and (c) CAT activity in a dosage-dependent manner. TDBZIM suppressed (b) GPx activity and (d) CAT activity. (e) DBZIM and (f) TDBZIM had little effect on SOD activity. (g) DBZIM induced GST activity. HSC T6 cells were treated with compounds of various concentrations for 48 h, and homogenized by sonication (60% frequency for 30 s) in PBS (pH 7.4, 1 mM of EDTA) for GPx, GST and CAT assays, or in 20 mM of HEPES buffer containing 1 mM of EGTA, 210 mM of mannitol and 70 mM of sucrose (pH 7.2) for SOD assay. Enzyme activity was normalized against total protein. DBZIM was dissolved in DMSO, and TDBZIM was dissolved in H2O. The data were presented as mean and SEM, N=6, *^aP<0.05, *^bP<0.01, *^cP<0.005, and *^dP<0.0005, when compared to the vehicle control.
(§3) Activity levels of three anti-oxidant enzymes, GPx, CAT and SOD, were determined using assay kits from Cayman Chemical. To assay GPx and CAT activities, protein samples were harvested in ice-cold PBS containing 1 mM of EDTA. To assay SOD activity, protein samples were prepared in 20 mM of N-(2-hydroxyethyl)-piperazine-N′-2-ethanesulfonic acid (HEPES) buffer containing 1 mM of ethylene glycol-bis(2-aminoethylether)-N,N,N′,N′-tetraacetic acid (EGTA), 210 mM of mannitol and 70 mM of sucrose. Protein content was determined by BCA assay.
GPx activity was indirectly measured by a coupled reaction with GSH reductase. Oxidized GSH, produced upon reduction of H2O2 by GPx, is recycled to its reduced state by glutathione reductase (GR) and nicotinamide adenine dinucleotide phosphate (NADPH). The oxidation of NAPDH is proportional to the GPx activity, and can be measured as a decrease in absorbance at 340 nm. GPx activity was expressed as nmol/min/mg protein.

SOD = test: Superoxide dismutase (SOD) activity assay in treated cells; details: 0.2% (v/v) DMSO vs untreated; not statistically significant
Protocol: as §2, §3
Total SOD, including all three types of SOD (Cu/Zn-, Mn- and Fe-SOD), was quantified using a tetrazolium salt to detect superoxide radicals generated by xanthine oxidase and hyposanthine. […] SOD activity was expressed as U/mg protein.

CAT = test: Catalase (CAT) activity assay in treated cells; details: 0.2% (v/v) DMSO vs untreated
Protocol: FIG. 4. […] Enzyme activity was normalized against total protein. DBZIM was dissolved in DMSO, and TDBZIM was dissolved in H2O. The data were presented as mean and SEM, N=6, *^aP<0.05, *^bP<0.01, *^cP<0.005, and *^dP<0.0005, when compared to the vehicle control.
Activity levels of three anti-oxidant enzymes, GPx, CAT and SOD, were determined using assay kits from Cayman Chemical. To assay GPx and CAT activities, protein samples were harvested in ice-cold PBS containing 1 mM of EDTA. […] Protein content was determined by BCA assay.
CAT activity was determined based on reaction of the enzyme with methanol in the presence of H2O2. The formaldehyde produced was measured spectrophotometrically at 540 nm using Purpald as the chromogen. CAT activity was expressed as nmol/min/mg protein.

HSC-T6 cells = test: Glutathione (GSH) and GSSG assays; details: 0.2% (v/v) DMSO vs untreated
Protocol: FIG. 3. […] (c) DBZIM and (d) TDBZIM both suppressed cellular GSSG (the oxidation product of GSH). (e) DBZIM and (f) TDBZIM both enhanced the GSH/GSSG ratio. HSC-T6 cells were incubated with compounds of various concentrations for 48 h, and assayed for the total GSH and GSSG amounts. The GSH/GSSG ratio was calculated as (GSH−GSSG)/GSSG. The GSH and GSSG amounts were normalized against the total protein. Note that DBZIM was dissolved in DMSO, and TDBZIM was dissolved in H2O. The data were presented as mean and SEM, N=6, *^aP<0.05, *^bP<0.01, *^cP<0.005, and *^dP<0.0005, when compared to the vehicle control.
Total cellular GSH and GSSG levels were determined by using assay kits from Cayman Chemical (Ann Arbor, Mich., USA) following the manufacturer's instructions. Briefly, HSC-T6 cells treated with DBZIM, TDBZIM, NAC, or EGCG were scalped and homogenized in phosphate buffered saline (PBS) by sonication at 60% frequency for 30 s, and the supernatant was collected after centrifugation at 16,000×g for 10 min at 4° C. Protein content of the samples was determined by bicinchonicic acid (BCA) assay.
For GSH assays, the protein sample was deproteinated by metaphosphoric acid (Aldrich, Catalog No. 23927-5), and the pH was adjusted by triethanolamine (Aldrich, Catalog No. T5830-0) according to the manual. The sample was ready for assaying total GSH including both the reduced and oxidized forms. Quantification of GSSG, exclusive of GSH, was performed by first derivatizing GSH with 2-vinylpyridine and assaying separately. Colorimetric signal was recorded at 405 nm with a Tecan Safire II plate reader. The levels of GSH or GSSG were determined as nmol/μg protein.

[1] = Rattus norvegicus, HSC-T6, HSC T6 cells

| Compound | suppression of col1a1 mRNA (col1a1) | IC50 (HSC T6 cells; HSC T6 cells) | IC50 (HSC T6 cells; [1]) | suppression of GFAP mRNA (GFAP) | suppression of SMAA mRNA (SMAA) | other results |
| --- | --- | --- | --- | --- | --- | --- |
| 1,3-bis(2,6-diisopropyl-phenyl)-imidazolinium chloride [DPPHIM] | 47% | 34 µM |  |  |  |  |
| [Br-].c1ccc(Cn2c[n+](Cc3ccccc3)c3ccccc32)cc1 [DBZBIM, 1,3-bisbenzyl-benzimidazolium bromide] |  |  | 310 µM | 50% |  |  |
| 1,3-bis(2,4,6-trimethylphenyl)-imidazolinium chloride [TMPHIM] | 62% | 110 µM |  | 66% | 49% | suppression of fibronectin mRNA (fibronectin): 29% |
| F[B-](F)(F)F.c1c[n+](C23CC4CC(CC(C4)C2)C3)cn1C12CC3CC(CC(C3)C1)C2 [AMIM, 1,3-bis(1-adamantyl)imidazolium tetrafluoroborate] |  |  | 166 µM | 69% | 23% |  |
| C[S+](C)[O-] [DMSO, dimethylsulfoxide] |  |  |  |  |  | GPx activity, of the control (GPx): 2.62 times; increase of SOD activity (SOD): 10%; CAT activity, of the control (CAT): 1.7 fold; GSH/GSSG ratio, of the control (HSC-T6 cells): 17%; GSSG amount, of the control (HSC-T6 cells): 4.4 fold; total cellular GSH level, of the control (HSC-T6 cells): 74% |
| 1,3-di-tert-butylimidazoliniumtetrafluoroborate [DBIM] | 58% | 2000 to 3000 µM |  |  | 49% |  |
